Measured values reported in patent US20250024872A1, “SALTY TASTE ENHANCER” (AJINOMOTO CO., INC., priority 2022, published 2025).

Experiment: sensory evaluation of saltiness intensity by expert panel, 1.0% sodium chloride solution
Format: in vivo
Description: Evaluation samples 1 to 10 were prepared by adding a cyclotene diluted solution (using propylene glycol as a solvent) to 1.0% sodium chloride solution to adjust the concentration of cyclotene in the sodium chloride solution as shown in the following Table 1. The amount of propylene glycol added was adjusted to be the same in all evaluation samples.
A panel of four experts conducted a sensory evaluation of the saltiness intensity of evaluation samples 1 to 10. The sensory evaluation was performed by the four experts, who scored each evaluation sample in 0.1 point increments based on the following evaluation scale using 1.0% sodium chloride solution, 1.025% sodium chloride solution and 1.05% sodium chloride solution as reference samples, and calculated the average score of the four experts. The four experts were previously trained to have a common understanding of the following saltiness intensity evaluation scale, such as the amount of saltiness intensity change required to cause a score change of 0.1 point.
• 0.0 points: saltiness intensity equivalent to 1.0% sodium chloride solution • 5.0 points: saltiness intensity equivalent to 1.025% sodium chloride solution • 10.0 points: saltiness intensity equivalent to 1.05% sodium chloride solution

For CC1=C(O)C(=O)CC1 [cyclotene], the “saltiness enhancement (in words)” value was “has a saltiness enhancing action”.
